Results published in publication PMC9165293, “Characterization in nonhuman primates of (R)-[^18F]OF-Me-NB1 and (S)-[^18F]OF-Me-NB1 for imaging the GluN2B subunits of the NMDA receptor” (European Journal of Nuclear Medicine and Molecular Imaging, 2022).
“And” between values parts separate entries of the source, which are not always exact repeats. Equal values may be shown once. Read-outs that look alike come from different tables or passages of the source. Values belong to the compound of their own block, whether it stands above or below them.

Assays:
[1] = Plasma free fraction (fP) by ultrafiltration; assay type: in vitro ADME, rhesus monkeys; details: monkey plasma
Description: The ultrafiltration method was used for measuring the unbound portion (free fraction) of [^18F]OF-Me-NB1 in plasma as previously described. The fP was determined as the ratio of the radioactivity concentration in the filtrate to the total activity in plasma. Measurements of fP were performed in triplicate for each scan.

[2] = Measurement of lipophilicity (log D7.4), 1-octanol/PBS; assay type: physicochemical; details: 1-octanol/PBS pH 7.4; n = 4
Description: Lipophilicity (log D7.4) was measured using the method previously reported. Log D7.4 was calculated as the ratio of decay-corrected radioactivity concentrations in 1-octanol and phosphate-buffered saline (PBS, pH = 7.4, Dulbecco). Six consecutive equilibrations were performed until a constant value of log D7.4 was obtained.

[3] = molecular target: T1, GluN2B subunits of the NMDA receptor (Macaca mulatta, UniProt F6T8S6); test: PET imaging in rhesus monkeys, baseline scans with kinetic modeling; assay type: in vivo, rhesus monkeys (Macaca mulatta); details: for BPND, cerebellum / BPND, cingulate cortex / BPND, frontal cortex / BPND, hippocampus / BPND, semiovale / BPND, thalamus: from baseline VT and VND of Co101,244 occupancy plot; for Peak uptake SUV across brain regions / Time to peak brain uptake after tracer injection: baseline scan, monkey brain; for VT, cerebellum / VT, cingulate cortex / VT, frontal cortex / VT, hippocampus / VT, semiovale / VT, thalamus: baseline, MA1
T1 construct: consistent with the pattern of GluN2B expression in the monkey brain; from tissue; host or cells: brain of living rhesus monkeys (in vivo PET)
Description: (§1) A total of seven PET scans in two monkeys were acquired. Each monkey underwent one baseline scan with (R)-[^18F]OF-Me-NB1, and two blocking scans at 10 min after the injection of the GluN2B antagonist Co-101,244 (0.25 mg/kg) or the sigma-1 antagonist FTC-146 (0.027 and 0.125 mg/kg). Co-101,244 and FTC-146 were previously used by Cai et al. to determine the in vivo binding specificity and selectivity of a radiotracer from the same scaffold, [^11C]NR2B-SMe, in rodents. In addition, a baseline scan with (S)-[^18F]OF-Me-NB1 was also performed in one monkey. All procedures were approved by the Yale University Institutional Animal Care and Use Committee.
(§2) Animals were sedated with a combination of alfaxalone (2 mg/kg), midazolam (0.3 mg/kg), and dexmedetomidine (0.01 mg/kg) and maintained in an anesthetized state with 1.5–2.5% isoflurane in oxygen. Heart rate, blood pressure, respiration rate, oxygen saturation, and respiration rate were monitored continuously. An arterial line was placed in the radial artery for blood sampling.
Dynamic PET data were acquired on the Focus 220 scanner (Siemens Medical Solutions, Knoxville, TN, USA). Before radiotracer injection, a 9 min transmission scan was obtained for attenuation correction. The radiotracer (10 mL) was administered intravenously as a slow bolus over 3 min. Emission data were collected in list mode for 90 or 120 min and binned into frames of increasing durations (6 × 30 s, 3 × 1 min, 2 × 2 min, and […]).
High-resolution magnetic resonance images were acquired with a Siemens 3 T Trio scanner for the region of interest (ROI) definition. PET emission data were attenuation-corrected using the transmission scan, then reconstructed using a Fourier rebinning and filtered back-projection algorithm. PET images summed from the first 10 min of each scan were registered to the anatomical MR image. Inverted transformations were applied to register an atlas ROI mask to the PET image, and time-activity curves (TACs) were extracted from each ROI: frontal, occipital, temporal, cingulate and insular cortex, caudate, putamen, globus pallidus, nucleus accumbens, amygdala, hippocampus, thalamus, pons, substantia nigra, cerebellum, and centrum semiovale.
(§3) Kinetic parameters were determined by fitting the regional TACs and metabolite-corrected arterial input functions to the one-tissue compartment (1TC) and two-tissue compartment (2TC) models, as well as the multilinear analysis 1 (MA1) method with starting time of 30 min [28]. The regional volume of distribution (VT, mL/cm^3) was derived in each case.

sigma-1 receptor = details: cited from earlier work
[4] = molecular target: T1, GluN2B subunits of the NMDA receptor; test: PET blocking studies and occupancy (Lassen) plot with (R)-[^18F]OF-Me-NB1; assay type: in vivo, rhesus monkeys (Macaca mulatta); details: for VT, cerebellum / VT, cingulate cortex / VT, frontal cortex / VT, hippocampus / VT, semiovale / VT, thalamus: MA1; for Non-displaceable volume of distribution (VND): from occupancy plot with Co101,244 0.25 mg/kg; for Receptor occupancy (occupancy plot): tracer (R)-[^18F]OF-Me-NB1
Description: as §1, §3
For the blocking studies, occupancy plots were constructed using regional VT values at baseline and differences in VT between baseline and blocking scans. Percent target occupancy across the brain and non-displaceable volume of distribution (VND) was then determined from the resulting linear relationship, where the slope is the uniform receptor occupancy by the drug in the brain [29].

[5] = molecular target: GluN2B subunit-containing NMDARs; details: cited from earlier work
[6] = Plasma metabolite analysis (parent fraction over time); assay type: in vivo, rhesus monkeys; details: for Parent fraction of total plasma activity: baseline scans; for Effect of pretreatment on parent fraction of (R)-[^18F]OF-Me-NB1 in plasma: blocking scans
Description: Measurements of plasma activity and parent fraction over time were performed as previously described. Arterial or venous blood samples were collected at preselected time points and assayed for radioactivity in whole blood and plasma with cross-calibrated gamma counters (Wizard 1480/2480, Perkin Elmer, Waltham, MA, USA). The volume of the whole blood or plasma (50–200 µL) was determined by the weight of the sample. Parent fraction was calculated as the ratio of the total radioactivity in fractions containing the parent compound to the total amount of radioactivity collected and fitted with an inverted gamma function and corrected for filtration efficiency. The arterial plasma input function (AIF) was then calculated as the product of the total counts in the plasma and the interpolated parent fraction at each time point.

[7] = Vital signs monitoring during PET scans; assay type: in vivo, rhesus monkeys; details: after the injections of blocking drug and tracer for the blocking scan
Description: as §2

[8] = M1 (male), listed as (R)–[^18F]OF–Me–NB1
[9] = blocking with Co 101,244 (0.25 mg/kg), M1
[10] = blocking with Co 101,244 (0.25 mg/kg), M2
[11] = blocking with FTC-146 (0.027 mg/kg), M1
[12] = blocking with FTC-146 (0.125 mg/kg), M2

T1 sequence (F6T8S6 29-1484): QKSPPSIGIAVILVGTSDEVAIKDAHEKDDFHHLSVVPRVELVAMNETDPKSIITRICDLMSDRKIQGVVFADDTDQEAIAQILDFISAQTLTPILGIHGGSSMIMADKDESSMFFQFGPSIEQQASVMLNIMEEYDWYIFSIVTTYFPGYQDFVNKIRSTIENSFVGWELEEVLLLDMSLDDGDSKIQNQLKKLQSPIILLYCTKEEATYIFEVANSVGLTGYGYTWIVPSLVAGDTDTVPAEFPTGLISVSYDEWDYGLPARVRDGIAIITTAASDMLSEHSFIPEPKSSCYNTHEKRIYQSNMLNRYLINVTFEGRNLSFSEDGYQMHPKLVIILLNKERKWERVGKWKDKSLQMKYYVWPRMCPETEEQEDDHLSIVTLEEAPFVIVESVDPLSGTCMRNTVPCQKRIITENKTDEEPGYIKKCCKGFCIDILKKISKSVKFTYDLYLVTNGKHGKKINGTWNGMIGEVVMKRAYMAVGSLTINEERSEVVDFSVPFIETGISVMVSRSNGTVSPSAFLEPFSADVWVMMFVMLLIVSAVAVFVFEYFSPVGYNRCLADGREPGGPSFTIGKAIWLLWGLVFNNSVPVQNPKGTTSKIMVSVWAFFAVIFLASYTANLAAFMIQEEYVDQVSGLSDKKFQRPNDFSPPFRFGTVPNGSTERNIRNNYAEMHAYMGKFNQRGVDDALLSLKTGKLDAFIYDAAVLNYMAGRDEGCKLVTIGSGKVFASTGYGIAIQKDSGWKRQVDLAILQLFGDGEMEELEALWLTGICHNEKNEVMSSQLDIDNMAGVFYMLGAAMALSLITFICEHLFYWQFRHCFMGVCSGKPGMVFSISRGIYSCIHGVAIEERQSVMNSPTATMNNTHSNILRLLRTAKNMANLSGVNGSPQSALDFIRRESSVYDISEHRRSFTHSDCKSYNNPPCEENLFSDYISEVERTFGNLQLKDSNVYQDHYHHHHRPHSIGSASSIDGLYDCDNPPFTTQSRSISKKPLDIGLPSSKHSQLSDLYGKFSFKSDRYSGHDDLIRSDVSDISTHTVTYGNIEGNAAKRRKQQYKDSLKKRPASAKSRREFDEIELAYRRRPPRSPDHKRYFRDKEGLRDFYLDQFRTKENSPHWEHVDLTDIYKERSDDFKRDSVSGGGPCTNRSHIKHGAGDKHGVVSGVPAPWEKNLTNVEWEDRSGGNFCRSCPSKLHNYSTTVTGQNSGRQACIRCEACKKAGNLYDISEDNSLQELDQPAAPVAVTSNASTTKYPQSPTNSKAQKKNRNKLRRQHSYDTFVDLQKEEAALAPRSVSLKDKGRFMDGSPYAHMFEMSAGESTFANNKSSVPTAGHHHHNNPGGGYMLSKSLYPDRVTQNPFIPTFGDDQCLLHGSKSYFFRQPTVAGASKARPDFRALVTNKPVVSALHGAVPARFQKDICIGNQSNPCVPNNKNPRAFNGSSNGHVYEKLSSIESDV

SMILES: O=c1sc2cc(CCCF)ccc2n1CCN1CCCCCC1 [FTC-146, reference compound]
Receptor occupancy (occupancy plot) ([4]; FTC-146 0.125 mg/kg, female monkey (monkey 2)): 33%
Blood pressure drop [7]: ~ 20%
Effect of pretreatment on parent fraction of (R)-[^18F]OF-Me-NB1 in plasma [6]: had little effect

SMILES: CC(C(O)c1ccc(O)cc1)N1CCC(Cc2ccccc2)CC1 (centres unmarked) [Ifenprodil, reference compound]
Ki ([5]; read-out: Ki, GluN2B subunit-containing NMDARs): 10 nM

Continued, in another order:

fraction unbound [1]: 0.012 ± 0.002
logD [2]: 2.85 ± 0.01
BPND, cerebellum ([3]; M1 (male)): 0.4
BPND, cingulate cortex ([3]; M1 (male)): 1.0
BPND, frontal cortex ([3]; M1 (male)): 0.68
BPND, hippocampus ([3]; M1 (male)): 0.73
BPND, semiovale ([3]; M1 (male)): 0.43
BPND, thalamus ([3]; M1 (male)): 0.48
BPND, cerebellum [3, 8]: 0.40
BPND, cingulate cortex [3, 8]: 1.01
BPND, cerebellum ([3]; M2 (female)): 0.43
BPND, cingulate cortex ([3]; M2 (female)): 0.90
BPND, frontal cortex ([3]; M2 (female)): 0.60
BPND, hippocampus ([3]; M2 (female)): 0.60
BPND, semiovale ([3]; M2 (female)): 0.48
BPND, thalamus ([3]; M2 (female)): 0.50
Peak uptake SUV across brain regions [3]: 4.5–6.5
Time to peak brain uptake after tracer injection [3]: ≤ 20 min
VT, cerebellum ([3]; M1): 8.9 mL/cm^3
VT, cingulate cortex ([3]; M1): 12.8 mL/cm^3
VT, frontal cortex ([3]; M1): 10.7 mL/cm^3
VT, hippocampus ([3]; M1): 11.0 mL/cm^3
VT, semiovale ([3]; M1): 9.1 mL/cm^3
VT, thalamus ([3]; M1): 9.4 mL/cm^3
VT, cerebellum ([3]; M2): 9.2 mL/cm^3
VT, cingulate cortex ([3]; M2): 12.2 mL/cm^3
VT, frontal cortex ([3]; M2): 10.3 mL/cm^3
VT, hippocampus ([3]; M2): 10.3 mL/cm^3
VT, semiovale ([3]; M2): 9.5 mL/cm^3
VT, thalamus ([3]; M2): 9.6 mL/cm^3
BPND in most brain regions ([3]; rhesus monkeys): > 0.5
VT, cerebellum [4, 9]: 6.9 mL/cm^3
VT, cingulate cortex [4, 9]: 8.1 mL/cm^3
VT, frontal cortex [4, 9]: 6.8 mL/cm^3
VT, hippocampus [4, 9]: 6.9 mL/cm^3
VT, semiovale [4, 9]: 8.6 mL/cm^3
VT, thalamus [4, 9]: 6.8 mL/cm^3
VT, cerebellum [4, 10]: 7.6 mL/cm^3
VT, cingulate cortex [4, 10]: 7.9 mL/cm^3
VT, frontal cortex [4, 10]: 7.4 mL/cm^3
VT, hippocampus [4, 10]: 7.3 mL/cm^3
VT, semiovale [4, 10]: 8.0 mL/cm^3
VT, thalamus [4, 10]: 6.8 mL/cm^3
VT, cerebellum [4, 11]: 9.3 mL/cm^3
VT, cingulate cortex [4, 11]: 11.6 mL/cm^3
VT, frontal cortex [4, 11]: 9.4 mL/cm^3
VT, hippocampus [4, 11]: 10.5 mL/cm^3
VT, semiovale [4, 11]: 9.5 mL/cm^3
VT, thalamus [4, 11]: 9.4 mL/cm^3
VT, cerebellum [4, 12]: 8.7 mL/cm^3
VT, cingulate cortex [4, 12]: 10.1 mL/cm^3
VT, frontal cortex [4, 12]: 9.2 mL/cm^3
VT, hippocampus [4, 12]: 9.2 mL/cm^3
VT, semiovale [4, 12]: 8.4 mL/cm^3
VT, thalamus [4, 12]: 8.6 mL/cm^3
Non-displaceable volume of distribution (VND) ([4]; female monkey (monkey 2)): 6.4 mL/cm^3
Non-displaceable volume of distribution (VND) ([4]; male monkey (monkey 1)): 6.36 mL/cm^3 and 6.4 mL/cm^3
Parent fraction of total plasma activity ([6]; 30 min after tracer injection): ~ 30%
Parent fraction of total plasma activity ([6]; 90 min after tracer injection): 20%
SMILES: COc1ccc2c(c1)CCN(CCCCc1ccccc1[18F])C[C@@H]2O [(R)-[^18F]OF-Me-NB1]
Ki (sigma-1 receptor): 100 nM
Ki ([5]; read-out: Ki, binding affinity to GluN2B): 4 nM

fraction unbound [1]: 0.018
Peak uptake SUV across brain regions [3]: 3.0–4.5
Time to peak brain uptake after tracer injection [3]: ≤ 15 min
Parent fraction of total plasma activity ([6]; 30 min after tracer injection): 20% and ~ 20%
Parent fraction of total plasma activity ([6]; 90 min after tracer injection): ~ 10%
SMILES: COc1ccc2c(c1)CCN(CCCCc1ccccc1[18F])C[C@H]2O [(S)-[^18F]OF-Me-NB1]

Receptor occupancy (occupancy plot) ([4]; Co101,244 0.25 mg/kg, female monkey (monkey 2)): 68%
Receptor occupancy (occupancy plot) ([4]; Co101,244 0.25 mg/kg, male monkey (monkey 1)): 77%
SMILES: Cc1ccc(CC2(O)CCN(CCOc3ccc(O)cc3)CC2)cc1 [Co101,244, reference compound]
Blood pressure drop [7]: ~ 20%
Effect of pretreatment on parent fraction of (R)-[^18F]OF-Me-NB1 in plasma [6]: appeared to accelerate the decrease in parent fraction
